Reference: PubChem BioAssay (NCI)
Values joined by “and” are separate entries in the source; they are usually repeats but may differ in a detail not shown here. Equal entries are not always repeated.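 Assay format: 96-well plates, 48-hour exposure. GI50: concentration for 50% inhibition of growth. Definition used: TGI = concentration required for complete inhibition of growth.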

Experiments:
Assay in all cases: NCI anticancer screen, dose series, 48 h
OVCAR-5 ovarian = tested on: OVCAR-5 ovarian
NCI-H460 lung = tested on: NCI-H460 lung
HT29 colon = tested on: HT29 colon
CAKI-1 renal = tested on: CAKI-1 renal
HCT-15 colon = tested on: HCT-15 colon
SN12C renal = tested on: SN12C renal
CCRF-CEM leukemia = tested on: CCRF-CEM leukemia
NCI-H522 lung = tested on: NCI-H522 lung
COLO 205 colon = tested on: COLO 205 colon

SMILES: Cc1coc2c1C(=O)C(=O)c1ccccc1-2
- TGI (OVCAR-5 ovarian): 3.55 µM
- TGI (NCI-H460 lung): 3.18 µM
- TGI (HT29 colon): 3.53 µM
- TGI (CAKI-1 renal): 3.63 µM
- TGI (HCT-15 colon): 3.42 µM
- TGI (SN12C renal): 2.12 µM
- TGI (CCRF-CEM leukemia): 5.49 µM

SMILES: Cn1c(=O)nc2n(-c3ccc(Cl)cc3)c(-c3ccccc3)c(-c3ccccc3)nc-2c1=O
- TGI (OVCAR-5 ovarian): > 100 µM
- TGI (NCI-H460 lung): 62.5 µM
- TGI (NCI-H522 lung): > 100 µM
- TGI (HT29 colon): > 100 µM
- TGI (CAKI-1 renal): > 100 µM
- TGI (HCT-15 colon): > 100 µM
- TGI (SN12C renal): > 100 µM
- TGI (COLO 205 colon): > 100 µM
- TGI (CCRF-CEM leukemia): 77.1 µM

SMILES: COC(=O)c1cccc2c3ccccc3c3ccccc3c12
- TGI (OVCAR-5 ovarian): > 100 µM
- TGI (NCI-H522 lung): 80.9 µM
- TGI (HT29 colon): 83 µM
- TGI (CAKI-1 renal): > 100 µM
- TGI (HCT-15 colon): > 100 µM
- TGI (SN12C renal): > 100 µM
- TGI (COLO 205 colon): 31.7 µM
- TGI (CCRF-CEM leukemia): 72.8 µM

SMILES: C/C(=N\NC(N)=S)c1ccc(C)c(C)c1
- TGI (OVCAR-5 ovarian): > 100 µM
- TGI (NCI-H460 lung): > 100 µM
- TGI (HT29 colon): 98.9 µM
- TGI (CAKI-1 renal): > 100 µM
- TGI (HCT-15 colon): > 100 µM
- TGI (SN12C renal): > 100 µM
- TGI (COLO 205 colon): > 100 µM
- TGI (CCRF-CEM leukemia): > 100 µM

SMILES: CCCCCCCCOCC(O)CO (stereo unspecified)
- TGI (OVCAR-5 ovarian): > 100 µM
- TGI (NCI-H460 lung): > 100 µM
- TGI (NCI-H522 lung): > 100 µM
- TGI (HT29 colon): > 100 µM
- TGI (CAKI-1 renal): > 100 µM
- TGI (HCT-15 colon): > 100 µM
- TGI (SN12C renal): > 100 µM
- TGI (COLO 205 colon): > 100 µM
- TGI (CCRF-CEM leukemia): 65 µM

SMILES: O=C1C(=C2CCCC2)CCC1CN1CCCCC1 (stereo unspecified)
- TGI (OVCAR-5 ovarian): 39.8 µM
- TGI (NCI-H522 lung): 3.45 µM
- TGI (HT29 colon): 42.1 µM
- TGI (HCT-15 colon): 31.2 µM
- TGI (SN12C renal): 30.6 µM
- TGI (COLO 205 colon): 73.5 µM
- TGI (CCRF-CEM leukemia): 36.6 µM

SMILES: N#Cc1c(-c2ccccc2)cc(-c2ccc(N)cc2)[nH]c1=O
- TGI (OVCAR-5 ovarian): > 100 µM
- TGI (NCI-H460 lung): > 100 µM
- TGI (NCI-H522 lung): > 100 µM
- TGI (HT29 colon): > 100 µM
- TGI (HCT-15 colon): > 100 µM
- TGI (SN12C renal): > 100 µM
- TGI (COLO 205 colon): > 100 µM
- TGI (CCRF-CEM leukemia): > 100 µM

SMILES: CC(C)(C)OP(=O)(OC(C)(C)C)C(O)c1ccc(/C=C(\C#N)C(N)=O)cc1 (stereo unspecified)
- TGI (OVCAR-5 ovarian): > 100 µM
- TGI (NCI-H460 lung): > 100 µM
- TGI (NCI-H522 lung): > 100 µM
- TGI (HT29 colon): > 100 µM
- TGI (CAKI-1 renal): > 100 µM
- TGI (HCT-15 colon): > 100 µM
- TGI (SN12C renal): > 100 µM
- TGI (COLO 205 colon): > 100 µM
- TGI (CCRF-CEM leukemia): > 100 µM

SMILES: COC(=O)CCC(=O)N1C/C(=C\c2ccccc2)C(=O)/C(=C/c2ccccc2)C1
- TGI (OVCAR-5 ovarian): 6.24 µM
- TGI (NCI-H460 lung): 10.8 µM
- TGI (HT29 colon): 4.09 µM
- TGI (CAKI-1 renal): 3.22 µM
- TGI (HCT-15 colon): 2.43 µM
- TGI (SN12C renal): 3.44 µM
- TGI (COLO 205 colon): 3.67 µM
- TGI (CCRF-CEM leukemia): > 100 µM

SMILES: C[N+](C)(C)CC1CCC(C[N+](C)(C)C)C1=O (stereo unspecified)
- TGI (OVCAR-5 ovarian): 14.4 µM
- TGI (NCI-H460 lung): 62.8 µM
- TGI (HT29 colon): 3.4 µM
- TGI (CAKI-1 renal): 1.55 µM
- TGI (HCT-15 colon): 4.18 µM
- TGI (SN12C renal): 8.18 µM
- GI50 (COLO 205 colon): 0.457 µM
- TGI (COLO 205 colon): 1.58 µM
- GI50 (CCRF-CEM leukemia): 0.258 µM
- TGI (CCRF-CEM leukemia): 1.47 µM

SMILES: Nc1ncnc2c1ncn2C1OC(COS(N)(=O)=O)C(O)C1O (stereo unspecified)
- TGI (NCI-H522 lung): 0.0148 µM
- GI50 (HCT-15 colon): 0.00255 µM
- TGI (HCT-15 colon): 0.0071 µM
- GI50 (SN12C renal): < 0.001 µM
- GI50 (COLO 205 colon): 0.00239 µM and 0.0219 µM
- TGI (COLO 205 colon): 0.00508 µM and 0.0432 µM
- TGI (CCRF-CEM leukemia): 0.173 µM

SMILES: CC1=CC(C)(c2c[nH]c3ccccc23)CC(C)(C)c2c1[nH]c1ccccc21 (stereo unspecified)
- TGI (OVCAR-5 ovarian): 36.4 µM
- TGI (NCI-H460 lung): 34.5 µM
- TGI (HT29 colon): 28.6 µM
- TGI (SN12C renal): 28.5 µM
- TGI (CCRF-CEM leukemia): 31.7 µM

SMILES: CCOC(=O)C(=O)Nc1cc(Cl)c(Cl)cc1Cl
- TGI (OVCAR-5 ovarian): > 100 µM
- TGI (NCI-H460 lung): > 100 µM
- TGI (NCI-H522 lung): > 100 µM
- TGI (HT29 colon): > 100 µM
- TGI (CAKI-1 renal): > 100 µM
- TGI (HCT-15 colon): > 100 µM
- TGI (SN12C renal): > 100 µM
- TGI (COLO 205 colon): > 100 µM

SMILES: CCOC(=O)C1C=C2O[C@@H]3OC4(CCCCC4)O[C@@H]3C2C2C(=O)CCC(=O)[C@@]12C(=O)OC (stereo partly specified)
- TGI (OVCAR-5 ovarian): > 100 µM
- TGI (NCI-H460 lung): > 100 µM
- TGI (NCI-H522 lung): > 100 µM
- TGI (CAKI-1 renal): > 100 µM
- TGI (HCT-15 colon): > 100 µM
- TGI (SN12C renal): > 100 µM
- TGI (COLO 205 colon): > 100 µM
- TGI (CCRF-CEM leukemia): > 100 µM

SMILES: O=c1c2cc(Br)cc(Br)c2nc(CCCl)n1-c1ccc(O)c([N+](=O)[O-])c1
- TGI (OVCAR-5 ovarian): 33.1 µM
- TGI (NCI-H460 lung): 42.1 µM
- TGI (NCI-H522 lung): 23.5 µM
- TGI (HT29 colon): 41.1 µM
- TGI (HCT-15 colon): 38.1 µM
- TGI (SN12C renal): 31.8 µM
- TGI (COLO 205 colon): 36.3 µM
- TGI (CCRF-CEM leukemia): 43.7 µM

SMILES: CCCCC(C)/C=C/C(=O)C1=C(O)/C(=C/C(=O)O)OC1=O (stereo unspecified)
- TGI (OVCAR-5 ovarian): > 100 µM
- TGI (NCI-H460 lung): > 100 µM
- TGI (HT29 colon): > 100 µM
- TGI (HCT-15 colon): > 100 µM
- TGI (SN12C renal): > 100 µM
- TGI (COLO 205 colon): > 100 µM
- TGI (CCRF-CEM leukemia): > 100 µM

SMILES: C[P+](C)(C)C
- TGI (OVCAR-5 ovarian): > 100 µM
- TGI (NCI-H460 lung): > 100 µM
- TGI (HT29 colon): > 100 µM
- TGI (CAKI-1 renal): > 100 µM
- TGI (HCT-15 colon): > 100 µM
- TGI (SN12C renal): > 100 µM
- TGI (COLO 205 colon): > 100 µM
- TGI (CCRF-CEM leukemia): > 100 µM

SMILES: Nc1ccc(-c2cc(C(=O)Nc3nccs3)[nH]c(=S)n2)cc1
- TGI (OVCAR-5 ovarian): > 100 µM
- TGI (NCI-H522 lung): > 100 µM
- TGI (HT29 colon): > 100 µM
- TGI (CAKI-1 renal): > 100 µM
- TGI (HCT-15 colon): > 100 µM
- TGI (SN12C renal): > 100 µM
- TGI (COLO 205 colon): > 100 µM
- TGI (CCRF-CEM leukemia): > 100 µM

SMILES: CC1(C)CCCC2(C)C3C(O)CC2(C)C(O)C31 (stereo unspecified)
- TGI (OVCAR-5 ovarian): > 100 µM
- TGI (NCI-H460 lung): > 100 µM
- TGI (NCI-H522 lung): > 100 µM
- TGI (HT29 colon): > 100 µM
- TGI (HCT-15 colon): > 100 µM
- TGI (SN12C renal): > 100 µM
- TGI (COLO 205 colon): > 100 µM
- TGI (CCRF-CEM leukemia): > 100 µM

SMILES: CCc1cccc(C(C)C)c1NC(=O)CCl
- TGI (NCI-H522 lung): > 100 µM
- TGI (HT29 colon): > 100 µM
- TGI (CAKI-1 renal): > 100 µM
- TGI (HCT-15 colon): > 100 µM
- TGI (SN12C renal): > 100 µM
- TGI (CCRF-CEM leukemia): > 100 µM

SMILES: Cc1ccccc1NC(=O)/C=N/O
- TGI (OVCAR-5 ovarian): > 100 µM
- TGI (NCI-H522 lung): > 100 µM
- TGI (HT29 colon): > 100 µM
- TGI (CAKI-1 renal): > 100 µM
- TGI (HCT-15 colon): > 100 µM
- TGI (SN12C renal): > 100 µM
- TGI (COLO 205 colon): > 100 µM

SMILES: Cc1cccc(C)c1NC(=O)CCC/C(CC(=O)c1ccc(F)cc1)=N\NC(=O)C(=O)NN
- TGI (OVCAR-5 ovarian): > 100 µM
- TGI (NCI-H460 lung): > 100 µM
- TGI (HT29 colon): > 100 µM
- TGI (CAKI-1 renal): > 100 µM
- TGI (HCT-15 colon): > 100 µM
- TGI (SN12C renal): > 100 µM
- TGI (COLO 205 colon): > 100 µM
- TGI (CCRF-CEM leukemia): > 100 µM
